The text below walks through data of ChEMBL document CHEMBL1131507, “Arylpiperazines with serotonin-3 antagonist activity: a comparative molecular field analysis” (J Med Chem, 1998).

The target of this assay is T1, Serotonin 3 (5-HT3) receptor (Rattus norvegicus, UniProt P35563+Q9JJ16).
T1 sequence (P35563 whole entry): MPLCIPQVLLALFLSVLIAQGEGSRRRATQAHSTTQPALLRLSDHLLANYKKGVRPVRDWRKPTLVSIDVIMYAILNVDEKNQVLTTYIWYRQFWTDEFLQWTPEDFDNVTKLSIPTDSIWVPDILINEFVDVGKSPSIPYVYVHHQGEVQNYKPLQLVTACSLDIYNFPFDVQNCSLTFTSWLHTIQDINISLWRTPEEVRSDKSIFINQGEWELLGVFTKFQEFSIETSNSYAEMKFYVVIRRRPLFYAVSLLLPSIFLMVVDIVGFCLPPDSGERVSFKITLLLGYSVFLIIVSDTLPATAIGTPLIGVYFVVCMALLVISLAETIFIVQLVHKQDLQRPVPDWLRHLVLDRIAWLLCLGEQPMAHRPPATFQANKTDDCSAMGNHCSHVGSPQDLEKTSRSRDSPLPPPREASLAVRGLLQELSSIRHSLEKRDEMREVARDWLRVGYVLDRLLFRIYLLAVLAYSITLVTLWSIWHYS
T1 sequence (Q9JJ16 whole entry): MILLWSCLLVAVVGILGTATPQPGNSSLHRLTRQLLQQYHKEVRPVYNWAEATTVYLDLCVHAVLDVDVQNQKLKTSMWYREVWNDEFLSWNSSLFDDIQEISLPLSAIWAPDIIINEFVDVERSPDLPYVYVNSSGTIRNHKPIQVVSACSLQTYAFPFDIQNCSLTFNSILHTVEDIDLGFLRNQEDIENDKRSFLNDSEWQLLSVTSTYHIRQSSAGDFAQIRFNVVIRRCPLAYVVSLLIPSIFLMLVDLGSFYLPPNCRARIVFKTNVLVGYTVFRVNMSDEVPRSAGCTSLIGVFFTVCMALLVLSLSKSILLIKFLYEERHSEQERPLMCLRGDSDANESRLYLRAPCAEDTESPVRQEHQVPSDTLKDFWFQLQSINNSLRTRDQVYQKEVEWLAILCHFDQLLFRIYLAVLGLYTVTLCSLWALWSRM
The assay can be described thus: Rat 5-hydroxytryptamine 3 receptor (5-HT3) antagonist. The class given is functional.
`CCN1CCN(c2nc3ccccc3c3c2cc(OC)c2ccccc23)CC1` showed a Ki of 224 nM.
Next, `COc1cc2c(SCCN(C)C)nc3ccccc3c2c2ccccc12`: 10000 nM; `CN1CCN(c2nc3ccccc3c3c2CCCC3)CC1`: 0.0977 nM; `c1ccc2c(c1)ccc1c(N3CCNCC3)nc3ccccc3c12`: 132 nM.
Then `CN1CCN(c2nc3ccccc3c3c2CSCC3)CC1`, with 0.398 nM; and `CCc1c(C)c(N2CCN(C)CC2)nc2ccccc12`, with 0.537 nM.
Next, `CN(C)CCSc1nc2ccccc2c2c1ccc1ccccc12`: 10000 nM.
Compound `CN(C)CCSc1nc2ccccc2c2c1COc1ccccc1-2` showed a Ki of 10000 nM.
Then `CN1CCN(c2nc3ccccc3c3c2CN(C)CC3)CC1`, with 3.16 nM; and `CN1CCN(c2nc3ccccc3c3c2CCC3)CC1`, with 0.0708 nM; and `CN(C)CCSc1nc2ccccc2c2c1CCc1ccccc1-2`, with 10000 nM.
Then `c1ccc2c3c(c(N4CCNCC4)nc2c1)CCCC3`, with 0.1 nM.
